Assay: method code SF-HPLC, from DOI: 10.1002/jps.2600750109, PMID: 3958903
Conditions: pH 7.4

Row | Structure (SMILES) | logD
1 | CC[C@H](C(=O)OCc1ccc(Cl)cc1)[C@H](CO)Cc1cncn1C | 2.69
2 | CC(C)(C)C(=O)OCOc1ccccc1C(=O)NCN1CCOCC1 | 1.81
3 | CCOC(=O)CC(CO)C(CC)c1cncn1C (stereo unspecified) | 0.73
4 | CCC(C(=O)OCc1ccccc1)C(CO)Cc1cncn1C (stereo unspecified) | 1.97
5 | CCCCCCOC(=O)C(CC)C(CO)Cc1cncn1C (stereo unspecified) | 2.71

Next, values leading:

Row | logD | Structure (SMILES)
6 | 2.23 | CCC(C(=O)OC(C)c1ccccc1)C(CO)Cc1cncn1C (stereo unspecified)
7 | 2.42 | CC[C@H](C(=O)OCc1ccccc1C)[C@H](CO)Cc1cncn1C
8 | 2.31 | CCC(C(=O)OCCc1ccccc1)C(CO)Cc1cncn1C (stereo unspecified)
9 | 1.27 | O=C(NCN1CCOCC1)c1ccccc1O
10 | 1.73 | CCCCOC(=O)[C@@H](CC)[C@H](CO)Cc1cncn1C
11 | 2.46 | CC[C@H](C(=O)OCc1ccc(C)cc1)[C@H](CO)Cc1cncn1C

Reference: the SangsterLogP compilation
